How the values were obtained:
[1] = tested on: THP-1 monocyte derived macrophages; assay: Secretion of de novo synthesized apo E by THP-1 monocyte derived macrophages; assay type: cell-based; conditions: 25 ug/10^6 cells, 35S-methionine, densitometry
Protocol: Bands were developed by autoradiography and quantitated by densitiometry.
THP-1 monocyte derived macrophages were metabolically labeled with ^35S-methionine in RPMI medium containing FBS. Macrophages (10^6 cells) were treated with the dual-domain peptide (25 tjg/10^6 cells) for 5. Conditioned medium was collected and cells were washed with cold PBS. Preparative cocktail containing MEM, plus lupeptin (50 tjg/ml), pepstatin A (50 tjg/ml), and aprotinin (100 kallikrein inactivating units/ml) were added to the medium to preserve oxidative and proteolytic damage. The medium from control cells and peptide-treated medium were concentrated to equal volume and loaded quantitatively on SDS-polyacrylamide gels (4 to 20% PAGE for 2.5 h at 4° C. at 125 volts). The gel was exposed to x-ray film for overnight.

[2] = tested on: B-100-containing particles; assay: Association of peptide with mouse apo B-100-containing particles; assay type: binding; conditions: LDL-R (null) and C57BL6 on normal chow
Source text: (§1) Although Ac-hE-18A-NH2 enhanced the hepatic uptake and degradation of atherogenic lipoproteins in apo E null mice, dual knockout mice (LDL-R(null)-apo E(null)), and C57BL/6 on an atherogenic diet, the peptide had no effect on the plasma cholesterol levels of C57BL/6 on normal chow, LDL-R(null) on normal chow or on a Western diet. […] However, the peptide is able to associate with human LDL (containing apo B-100) and VLDL and is able to enhance uptake and degradation of atherogenic human lipoproteins in HepG2 cells and in LDL-R (null) mouse model (Garber, D. W. et al. Atherosclerosis. 163:229-237 2003). The reason for the difference in the properties of apo B-100-containing human LDL and mouse LDL is not clear.

human VLDL = conditions: cited from earlier work
apo E null mice = assay: Atherosclerosis inhibition in apo E null mice, retroorbital administration, en face lesion analysis; assay type: in vivo
Protocol: Extent of lesion is analyzed by en face preparation and staininf with Oil Red O.
Atherosclerosis inhibition studies in apo E null mice that develop atherosclerosis spontaneously were also performed. […] Lesion analysis was performed using the en face preparations. Sixteen week old mice would have well established lesions. […] Detailed studies on the mechanism of the inhibition of atherosclerosis are described below.

[3] = 3 mg/kg; 6 weeks of 1% cholesterol diet, one month after administration; not significantly different from control
Source text: For these studies, NZW rabbits that respond to diet can be selected. All animals are fed a 1% cholesterol diet and their cholesterol values determined three days after the diet initiation. Twenty rabbits with similar cholesterol levels can be selected and changed back to a normal diet. After 15 days on a normal diet, cholesterol values can once again be determined to check if the values returned to normal. Animals whose cholesterol values have not returned to pre-diet levels can be monitored until they are normalized or removed from the study. Ten rabbits in each group are selected and simultaneous peptide administration and 1% diet initiation can follow. […] To study dose-response effects, smaller number of animals (five in each group can be administered three doses of peptide (5 mg/kg, 3 mg/kg and 1.5 mg/kg). After the initial experiments, the dose of the peptide can be decided. A solution of the peptide (sterile saline) can be injected through the ear vein, once a week for the duration of the study (based on previous experience, for 6 weeks). The study parameters include total cholesterol, lipoprotein levels, LOOH levels, PON activity in the plasma. At the end of six weeks, the rabbits are euthanized and histology assessed.

[4] = tested on: monocyte chemotaxis protein-1 (MCP-1); assay: LPS-induced MCP-1 in HUVEC; assay type: cell-based, human
Source text: (§2) The effect of the peptide on the inflammatory response of bacterial lipopolysaccaride (LPS), a potent inducer of cytokines and cell adhesion molecules was also examined.

VCAM-1 = assay: LPS-induced VCAM-1 expression in HUVEC (Western blot); assay type: cell-based, human; conditions: peptide 50 ug/ml, LPS 1 ug/ml, 6 h exposure
Source text: HUVECs were challenged with the peptide alone, peptide +LPS and LPS. LPS induces expression of VCAM-1 (lane 3).
as §2

[5] = tested on: C57BL/6 on normal chow, LDL-R(null) mice; assay: Plasma cholesterol in C57BL/6 on normal chow and LDL-R(null) mice; assay type: in vivo; conditions: LDL-R(null) on normal chow or on a Western diet
Source text: as §1

[6] = peptide-associated VLDL, absence of apo E

Ac-LRKLRKRLLRDWLKAFYDKVAEKLKEAF-NH2 [Ac-hE-18A-NH2]
intensity of 36 kDa apo E band relative to medium of control cells [1]: 4 times
association with B-100-containing particles [2]: not able to associate
interaction with VLDL (human VLDL): displacement of apo E from VLDL
enhanced degradation of VLDL compared to VLDL alone (human VLDL; [6]): three
enhanced uptake of VLDL compared to VLDL alone (human VLDL; [6]): six
decreased lesion compared to control group (apo E null mice; 50 ug/mouse retroorbital, 3 times weekly, four weeks, sixteen week old female apo E null mice, en face, p<0.001): 40%
loss of animals / visible injury (apo E null mice; 12 retroorbital administrations, 50 ug/mouse): no loss of animals and no visible injury to animals was observed
plasma clearance of the peptide (3 mg/kg radiolabelled peptide): much faster than that observed in WHHL rabbits
plasma residence time t1/2 (rabbits): 1 to 2 min
average body weight [3]: 4.8 ± 0.4 kg
average daily food intake [3]: 0.17 ± 0.03 kg
effect on MCP-1 [4]: also inhibited
inhibition of LPS-induced VCAM-1 expression (VCAM-1): more than 80%
effect on plasma cholesterol levels [5]: no effect

— patent US8557767B2, “Synthetic apolipoprotein E mimicking polypeptides and methods of use” (UAB Research Foundation, priority 2007, dated 2013)
